# What was measured:
# [1] = system: mushroom tyrosinase (MT); test: Tyrosinase assay by oxidation of DOPA, mushroom tyrosinase; assay type: biochemical; details: 37° C., 45 minutes; for OD475 nm (MT): background-corrected, uninhibited enzyme control 0.17
# Method: (§1) The (tyrosinase) inhibitory activity of a, b, c and d was measured by oxidation of DOPA. Each crown ether was tested against human Tyrosinase (in the form of melanocytic extract) and commercial (Worthington, USA) mushroom tyrosinase (MT), using the DOPA oxidation assay. Details of the assay mix are included in table 2. [table] Assay examined the change (Optical Density) OD475 nm at 37° C., after 45 minutes reaction in a standard 96-well plate. All ON475 nm were corrected by subtracting the background OD475 nm value of the negative control sample lacking enzyme in the assay mix. […] The background effect of 10% DMSO on tyrosinase activity was also examined for calculation purposes (i.e. the ‘U’ sample).
# [2] = molecular target: T1, human Tyrosinase (in the form of melanocytic extract) (Homo sapiens, UniProt P14679); test: Tyrosinase assay by oxidation of DOPA, human tyrosinase (melanocytic extract); assay type: biochemical; details: for OD475 nm (HME) / inhibition at 100 µM / inhibition at 1000 µM / inhibition at 10 µM / % Inhibition (HME): 37° C., 45 minutes; for OD475 nm (HME): background-corrected, uninhibited enzyme control 0.141; for inhibition at 100 µM / inhibition at 1000 µM / inhibition at 10 µM: read-out: % Inhibition (HME); for inhibit the activity of tyrosinase: summary in words, at least one of human or mushroom tyrosinase, inhibitor = colour inhibited by more than 10% of control
# T1 construct: 2.5 mg/ml human melanocytic lysate OR; endogenous in cells; host or cells: human melanocytes (lysate/extract)
# T1 sequence (P14679 19-529): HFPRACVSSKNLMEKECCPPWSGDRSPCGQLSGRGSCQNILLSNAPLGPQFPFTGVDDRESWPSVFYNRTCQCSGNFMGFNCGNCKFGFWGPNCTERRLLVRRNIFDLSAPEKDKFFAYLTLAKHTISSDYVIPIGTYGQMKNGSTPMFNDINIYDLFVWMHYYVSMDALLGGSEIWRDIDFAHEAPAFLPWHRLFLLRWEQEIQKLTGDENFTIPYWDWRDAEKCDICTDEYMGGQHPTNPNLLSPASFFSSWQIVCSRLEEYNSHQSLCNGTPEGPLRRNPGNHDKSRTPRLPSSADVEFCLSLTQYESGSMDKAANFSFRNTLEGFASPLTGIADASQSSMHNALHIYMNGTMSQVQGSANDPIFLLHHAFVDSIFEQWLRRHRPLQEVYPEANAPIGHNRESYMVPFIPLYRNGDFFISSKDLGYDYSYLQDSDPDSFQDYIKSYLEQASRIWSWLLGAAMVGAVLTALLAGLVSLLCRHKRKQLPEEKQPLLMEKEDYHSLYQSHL
# Method: as §1, with “[table]” left out
SMILES,% Inhibition (MT) ([1]; 0.1 mM test compound) [%],OD475 nm (MT) ([1]; 0.1 mM test compound),% Inhibition (MT) ([1]; 0.25 mM test compound) [%],OD475 nm (MT) ([1]; 0.25 mM test compound),% Inhibition (MT) ([1]; 0.5 mM test compound) [%],OD475 nm (MT) ([1]; 0.5 mM test compound),OD475 nm (HME) ([2]; 0.1 mM test compound),inhibition at 100 µM ([2]; 0.1 mM test compound) [%],OD475 nm (HME) ([2]; 1 mM test compound),inhibition at 1000 µM ([2]; 1 mM test compound) [%],inhibit the activity of tyrosinase [2],% Inhibition (MT) ([1]; 1 mM test compound) [%],OD475 nm (MT) ([1]; 1 mM test compound),OD475 nm (HME) ([2]; 0.01 mM test compound),inhibition at 10 µM ([2]; 0.01 mM test compound) [%],% Inhibition (HME) ([2]; 1 mM test compound),% Inhibition (MT) ([1]; 0.01 mM test compound) [%],OD475 nm (MT) ([1]; 0.01 mM test compound),% Inhibition (HME) ([2]; 0.01 mM test compound)
"O=c1cc(CO)occ1O [Kojic acid, reference compound]",23,0.131,35,0.111,51,0.084,–,–,–,–,–,–,–,–,–,–,–,–,–
O=C(O)c1ccc2c(c1)OCCOCCOCCO2 [Compound a],25,0.128,–,–,–,–,0.126,11,0.029,79,inhibit the activity of at least one of human or mushroom tyrosinase,60,0.068,–,–,–,–,–,–
O=C(NC1CCCCC1)N(C(=O)c1ccc2c(c1)OCCOCCOCCO2)C1CCCCC1 [Compound b],–,–,–,–,–,–,–,–,0.162,–,inhibit the activity of at least one of human or mushroom tyrosinase,28,0.122,0.125,12,No,6,0.160,–
COC(=O)C(C)(C)NC(=O)C(CC(C)C)NC(=O)C(C)NC(=O)c1ccc2c(c1)OCCOCCOCCOc1ccc(C(=O)NC(C)C(=O)NC(CC(C)C)C(=O)NC(C)(C)C(=O)OC)cc1OCCOCCOCCO2 (centres unmarked) [Compound d],58,0.071,–,–,–,–,0.134,5,0.110,23,inhibit the activity of at least one of human or mushroom tyrosinase,69,0.053,0.144,–,–,19,0.137,No
O=C(O)c1ccc2c(c1)OCCOCCOCCOc1ccc(C(=O)O)cc1OCCOCCOCCO2 [Compound c],5,0.162,–,–,–,–,0.094,33,0.027,81,inhibit the activity of at least one of human or mushroom tyrosinase,49,0.087,0.092,35,–,9,0.156,–
